Test results: the supplement of paper PMC10307832

Legend:
Assay in all cases: relative viability (nuclei count vs DMSO), 5 days (fraction); higher = more cells survive
Entinostat + Pemetrexed = compound: Nc1ccccc1NC(=O)c1ccc(CNC(=O)OCc2cccnc2)cc1 [Entinostat] + Nc1nc2[nH]cc(CCc3ccc(C(=O)N[C@@H](CCC(=O)O)C(=O)O)cc3)c2c(=O)[nH]1 [Pemetrexed] (partner 0.2 µM)
Method in brief: (§1)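 Nuclei were stained with Hoechst during a one-step fixation (final 0.05% Triton X-100, 1% formaldehyde, 1 ug/ml Hoechst) carried out 5 days after dosing, then counted on 4× images. The cells, lung cancer lines in 1536-well plates, had been dosed by pin tool the day after seeding with one drug alone or a fixed anchor-drug dose plus five library-drug doses (not always all listed) in √10 steps. Relative viability is the nuclei count in treated wells divided by that in vehicle wells, and each value is the median of duplicate plates.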

Entinostat + Luminespib = compound: Nc1ccccc1NC(=O)c1ccc(CNC(=O)OCc2cccnc2)cc1 [Entinostat] + CCNC(=O)c1noc(-c2cc(C(C)C)c(O)cc2O)c1-c1ccc(CN2CCOCC2)cc1 [Luminespib] (partner 0.01 µM)
Method in brief: as §1

SGI-1776 + Linsitinib = compound: CN1CCC(CNc2ccc3ncc(-c4cccc(OC(F)(F)F)c4)n3n2)CC1 [SGI-1776] + C[C@]1(O)C[C@@H](c2nc(-c3ccc4ccc(-c5ccccc5)nc4c3)c3c(N)nccn32)C1 [Linsitinib] (partner 1 µM)
Method in brief: as §1

Entinostat + OSI-027 = compound: Nc1ccccc1NC(=O)c1ccc(CNC(=O)OCc2cccnc2)cc1 [Entinostat] + COc1cccc2cc(-c3nc([C@H]4CC[C@H](C(=O)O)CC4)n4ncnc(N)c34)[nH]c12 [OSI-027] (partner 0.5 µM)
Method in brief: as §1

Row | Cell Line | relative viability (Entinostat + Pemetrexed; first compound 0.02 µM) | relative viability (Entinostat + Pemetrexed; first compound 0.06325 µM) | relative viability (Entinostat + Pemetrexed; first compound 0.2 µM) | relative viability (Entinostat + Pemetrexed; first compound 0.6325 µM) | relative viability (Entinostat + Pemetrexed; first compound 2 µM) | relative viability (Entinostat + Luminespib; first compound 0.02 µM) | relative viability (Entinostat + Luminespib; first compound 0.06325 µM) | relative viability (Entinostat + Luminespib; first compound 0.2 µM) | relative viability (Entinostat + Luminespib; first compound 0.6325 µM) | relative viability (Entinostat + Luminespib; first compound 2 µM) | relative viability (SGI-1776 + Linsitinib; first compound 0.08 µM) | relative viability (SGI-1776 + Linsitinib; first compound 0.8 µM) | relative viability (SGI-1776 + Linsitinib; first compound 2.53 µM) | relative viability (SGI-1776 + Linsitinib; first compound 8 µM) | relative viability (Entinostat + OSI-027; first compound 0.02 µM) | relative viability (Entinostat + OSI-027; first compound 0.06325 µM) | relative viability (Entinostat + OSI-027; first compound 0.2 µM) | relative viability (Entinostat + OSI-027; first compound 0.6325 µM) | relative viability (Entinostat + OSI-027; first compound 2 µM)
1 | 201T | 0.37 | 0.33 | 0.379 | 0.287 | 0.279 | 1.03 | 1.04 | 0.995 | 0.925 | 0.747 | 1.05 | 1.01 | 0.968 | 0.87 | 0.92 | 0.726 | 0.619 | 0.548 | 0.45
2 | A549 |  |  |  |  |  |  |  |  |  |  | 0.672 | 0.574 | 0.518 | 0.48 |  |  |  |  | 
3 | A-427 | 1.03 | 0.971 | 0.922 | 0.904 | 0.765 | 1.01 | 1.03 | 0.83 | 0.651 | 0.582 | 1.13 | 1.19 | 1.16 | 1.07 | 0.505 | 0.489 | 0.403 | 0.395 | 0.343
4 | ABC-1 |  |  |  |  |  | 0.661 | 0.49 | 0.609 | 0.555 | 0.358 | 0.745 | 0.895 | 0.883 | 0.742 | 0.446 | 0.524 | 0.544 | 0.351 | 0.247
5 | BEN | 0.88 | 1.02 | 0.891 | 0.564 | 0.413 | 0.217 | 0.32 | 0.263 | 0.472 | 0.349 | 0.931 | 0.789 | 0.796 | 0.646 | 0.271 | 0.353 | 0.323 | 0.302 | 0.217
6 | CAL-12T | 1.17 | 1.09 | 1.49 | 1.21 | 0.676 | 0.502 | 0.402 | 0.459 | 0.461 | 0.364 | 0.916 | 0.821 | 0.821 | 0.756 | 0.583 | 0.719 | 0.698 | 0.601 | 0.305
7 | COR-L23 | 0.21 | 0.184 | 0.197 | 0.179 | 0.167 | 0.697 | 0.535 | 0.49 | 0.296 | 0.108 | 0.886 | 0.965 | 0.864 | 0.668 | 0.67 | 0.599 | 0.621 | 0.291 | 0.264
8 | COR-L 105 | 1.12 | 1.23 | 1.12 | 0.816 | 0.56 | 0.803 | 0.749 | 0.72 | 0.561 | 0.345 | 1.1 | 0.927 | 0.874 | 0.717 | 0.735 | 0.875 | 0.977 | 0.688 | 0.297
9 | Calu-6 |  |  |  |  |  |  |  |  |  |  | 1.07 | 0.986 | 0.997 | 0.818 |  |  |  |  | 
10 | ChaGo-K-1 | 0.269 | 0.262 | 0.271 | 0.264 | 0.259 | 0.765 | 0.523 | 0.487 | 0.596 | 0.503 |  |  |  |  | 0.606 | 0.513 | 0.56 | 0.436 | 0.378
11 | EBC-1 |  |  |  |  |  |  |  |  |  |  | 0.969 | 0.85 | 1.02 | 0.675 |  |  |  |  | 
12 | EKVX | 0.402 | 0.376 | 0.385 | 0.344 | 0.273 | 0.986 | 0.913 | 0.794 | 0.801 | 0.427 | 1.1 | 0.985 | 1.01 | 0.863 | 0.751 | 0.738 | 0.805 | 0.511 | 0.318
13 | EMC-BAC-2 | 0.434 | 0.432 | 0.416 | 0.361 | 0.341 | 1.15 | 1.15 | 1.02 | 0.768 | 0.529 | 0.868 | 0.846 | 0.838 | 0.737 | 0.376 | 0.423 | 0.368 | 0.305 | 0.256
14 | EPLC-272H | 0.391 | 0.322 | 0.304 | 0.244 | 0.248 | 0.209 | 0.187 | 0.31 | 0.262 | 0.264 | 1.18 | 1.19 | 1.34 | 1.11 | 0.285 | 0.359 | 0.314 | 0.245 | 0.214
15 | H3255 | 0.586 | 0.57 | 0.549 | 0.414 | 0.378 | 1.02 | 0.954 | 0.652 | 0.613 | 0.321 | 1.1 | 1.04 | 0.921 | 0.792 | 0.589 | 0.582 | 0.503 | 0.309 | 0.232
16 | HARA | 0.233 | 0.22 | 0.31 | 0.257 | 0.247 | 0.534 | 0.732 | 0.752 | 0.584 | 0.201 | 1.11 | 0.921 | 0.909 | 0.945 | 0.448 | 0.529 | 0.551 | 0.299 | 0.194
17 | HCC-15 | 0.237 | 0.215 | 0.237 | 0.197 | 0.159 | 0.352 | 0.301 | 0.261 | 0.359 | 0.257 | 0.866 | 0.942 | 0.87 | 0.657 | 0.669 | 0.617 | 0.583 | 0.347 | 0.239
18 | HCC-44 | 0.63 | 0.604 | 0.631 | 0.562 | 0.564 | 1.04 | 0.889 | 0.741 | 0.505 | 0.324 | 0.73 | 0.709 | 0.644 | 0.641 | 0.53 | 0.518 | 0.333 | 0.182 | 0.176
19 | HCC-78 | 0.922 | 0.873 | 0.946 | 0.871 | 0.908 |  |  |  |  |  | 0.582 | 0.432 | 0.449 | 0.403 | 0.402 | 0.33 | 0.351 | 0.344 | 0.261
20 | HCC-366 | 0.185 | 0.141 | 0.159 | 0.0978 | 0.0735 |  |  |  |  |  | 0.731 | 0.697 | 0.633 | 0.413 | 0.922 | 0.972 | 0.854 | 0.214 | 0.0783
